Test results taken from paper PMC8769072, “Proteome‐scale mapping of binding sites in the unstructured regions of the human proteome” (Molecular Systems Biology, 2022).
Where a SMILES comes first, the peptide text is derived from it. [ ]: non-standard residue; d: D form. The star is where a group is joined. FITC = O=C1OC2(c3ccc(O)cc3Oc3cc(O)ccc32)c2ccc(NC(=S)*)cc21; pS = N[C@@H](COP(=O)(O)O)C(=O)O

Tests used:
[1] = target: T1, KPNB1 HEAT (Homo sapiens, UniProt Q14974); assay: FP saturation (direct binding of FITC probe), KPNB1 HEAT; details: direct binding of FITC-labeled probe, 10 nM in master mix, 50 mM KPO4 pH 7.5
T1 construct: Q14974; KPNB1; HEAT; 485; pETM41; Genescript; 6-His-MBP (from vector pETM41) (cleaved yes); made in house; host or cells: bacteria (E. coli BL21(DE3) gold is named only for the phage-selection preparations)
T1 sequence (Q14974 1-485): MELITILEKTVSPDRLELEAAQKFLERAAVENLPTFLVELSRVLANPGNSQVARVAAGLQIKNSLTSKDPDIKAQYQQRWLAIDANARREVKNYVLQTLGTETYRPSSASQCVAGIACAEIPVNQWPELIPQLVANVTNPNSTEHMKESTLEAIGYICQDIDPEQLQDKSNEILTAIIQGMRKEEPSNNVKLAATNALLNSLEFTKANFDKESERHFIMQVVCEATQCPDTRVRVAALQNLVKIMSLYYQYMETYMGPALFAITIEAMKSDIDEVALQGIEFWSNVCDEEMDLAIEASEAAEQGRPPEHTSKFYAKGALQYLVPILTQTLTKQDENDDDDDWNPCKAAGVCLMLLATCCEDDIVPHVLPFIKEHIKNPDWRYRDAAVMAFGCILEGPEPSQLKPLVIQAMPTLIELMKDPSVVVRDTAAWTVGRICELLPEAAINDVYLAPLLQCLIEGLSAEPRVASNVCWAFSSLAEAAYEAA

[2] = target: T2, TLN1 PTB (Homo sapiens, UniProt Q9Y490); assay: FP saturation (direct binding of FITC probe), TLN1 PTB; details: Fig 3C; direct binding of FITC-labeled probe
T2 construct: Q9Y490; TLN1; PTB; 309; pHH0103; Sidhu Lab (PMID: 33438817); made in house; host or cells: bacteria (E. coli BL21(DE3) gold is named only for the phage-selection preparations)
T2 sequence (Q9Y490 309-401): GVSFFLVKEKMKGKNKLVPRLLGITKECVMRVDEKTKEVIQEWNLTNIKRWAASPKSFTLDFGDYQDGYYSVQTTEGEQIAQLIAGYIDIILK

[3] = target: T3, SFN 14-3-3 (Homo sapiens, UniProt P31947); assay: FP saturation (direct binding of FITC probe), SFN 14-3-3; design: P31947; SFN; 14-3-3; 236; pHH0103; Sidhu Lab (PMID: 33438817); made in house; host or cells: bacteria (E. coli BL21(DE3) gold is named only for the phage-selection preparations); details: direct binding of FITC-labeled phospho-RAF1 probe
T3 sequence (P31947 1-236): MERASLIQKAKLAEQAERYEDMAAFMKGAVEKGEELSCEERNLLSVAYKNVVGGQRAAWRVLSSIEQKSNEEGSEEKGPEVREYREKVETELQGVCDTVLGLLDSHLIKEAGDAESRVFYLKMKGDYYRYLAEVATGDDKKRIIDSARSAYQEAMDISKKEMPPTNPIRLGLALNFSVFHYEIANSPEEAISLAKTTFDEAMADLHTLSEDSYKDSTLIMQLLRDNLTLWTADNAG
Description: The protein coding regions (Dataset EV2) were subcloned using the EcoRI and NcoRI restriction site into in pETM41 (EMBL) for the expression of 6‐His‐MBP‐tagged proteins or in the pETM33 (EMBL) vector. • Protein expression was induced at OD600 0.8 with 1 mM IPTG, and allowed to proceed at 18°C for 20 h. • The bacteria were harvested and lysed under the same conditions as described above. • The supernatant was batch purified using the IMAC technique with Ni Sepharose 6 Fast Flow (Cytiva). • After 1 h incubation with the gel slurry, the gel was transferred into a column. • The beads were washed with wash buffer (20 mM NaPO4, 0.5 M NaCl, 30 mM imidazole pH 7.4) and eluted with elution buffer (20 mM NaPO4 0.5 M, NaCl 500 mM imidazole, pH 7.4). The proteins were further purified as follows: • 14‐3‐3 SFN: The protein was not eluted from the IMAC column. Instead, after washing unbound protein away, His‐tagged HRV3C protease was added and incubated for 16 h in 20 mM NaPO4, 0.5 M NaCl, pH 7.4. The cleaved protein was eluted with the same buffer. […]
Peptides were obtained from GeneCust (France) at > 95% purity. […] Data were analyzed with GraphPad Prism version 9.0.0 for MacOS (GraphPad Software, San Diego, California USA, www.graphpad.com). […]

[4] = target: T3, SFN 14-3-3; assay: FP competition, SFN 14-3-3
Description: Fluorescence polarization affinity measurements were carried out with an iD5 multidetection plate reader (Molecular Devices) using Corning assay 96‐well half area black Flat‐bottom Nonbinding surface plates (Corning, USA #3993). The settings were 485 nm excitation and 535 nm for emission at a reading height of 1.76 mm and total volume of 50 µl. Peptides were obtained from GeneCust (France) at > 95% purity. Unlabeled peptides were dissolved in 50 mM KPO4 or 50 mM NaPO4, pH 7.5. FITC‐labeled peptides were dissolved in dimethyl sulfoxide (DMSO). Protein for saturation experiments, or peptides for the displacement experiments, were arrayed in serial dilution in 50 mM KPO4 pH 7.5 in 25 µl, followed by addition of 25 µl of a master mix. For saturation binding experiments, the master mix contained 2 mM DTT and 10 nM FITC‐labeled peptide in 50 mM KPO4 pH 7.5 or 50 mM NaPO4 pH 7.5. For competition experiments, the master mix was supplemented with the protein of interest at a concentration of four times the K D value. Data were analyzed with GraphPad Prism version 9.0.0 for MacOS (GraphPad Software, San Diego, California USA, www.graphpad.com). […]

[5] = target: T4, KPNA4 ARM (Homo sapiens, UniProt O00629); assay: FP competition, KPNA4 ARM major pocket (FITC-Myc probe); assay type: binding
T4 construct: O00629; KPNA4; Arm; 68; 487; pETM33/pETM41; Genescript; made in house; host or cells: bacteria (E. coli BL21(DE3) gold is named only for the phage-selection preparations)
T4 sequence (O00629 68-487): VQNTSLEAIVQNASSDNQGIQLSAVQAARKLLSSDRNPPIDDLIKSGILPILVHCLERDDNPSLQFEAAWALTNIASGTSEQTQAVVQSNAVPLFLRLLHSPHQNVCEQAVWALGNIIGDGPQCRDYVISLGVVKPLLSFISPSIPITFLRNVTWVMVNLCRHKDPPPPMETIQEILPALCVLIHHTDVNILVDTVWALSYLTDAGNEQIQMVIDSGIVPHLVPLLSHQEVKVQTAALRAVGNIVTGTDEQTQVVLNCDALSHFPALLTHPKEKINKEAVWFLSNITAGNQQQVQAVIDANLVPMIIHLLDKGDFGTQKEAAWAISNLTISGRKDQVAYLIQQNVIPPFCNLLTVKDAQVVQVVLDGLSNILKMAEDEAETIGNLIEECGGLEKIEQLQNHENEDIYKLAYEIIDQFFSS
Excerpt: Like other importins, KPNA4 has two distinct NLS‐binding pockets on the surface of an armadillo (ARM) repeat fold (major pocket, ARM 2–4; minor pocket, ARM 6–8; Fig 5B) (Smith et al, [2018]). Bipartite NLSs are usually 17–19 amino acids long and engage both pockets. Monopartite NLSs are short basic stretches, divided into five classes (Kosugi et al, [2009]): class I KR[KR]R or K[KR]RK, class II [PR]xxKR[^DE][KR] (where ^ indicates “not”), class III KRx[WFY]xxAF, class IV [RP]xxKR[KR][^DE], and class V LGKR[KR][WFY]. The class I and class II motifs preferentially interact with the major pocket (Kosugi et al, [2009]). In contrast, class III and class IV NLSs preferentially bind to the minor pocket. Using KPNA4 as a bait against the HD2 P8 library we identified 33 peptides found in 32 proteins. Of the 26 proteins for which information was available, 22 proteins were annotated as having nuclear or nucleolar localization in the UniProt database. To gain additional information we combined the data generated for KPNA4 by screening against the complete P8 HD2 library, with the results generated using two relevant sublibraries (the cytoplasmic and nuclear, and nuclear sublibraries) resulting in a set of 92 peptides containing NLS‐like sequences found in 76 proteins. Using these peptides we could generate consensus motifs that matched four of the previously reported NLS classes (Fig 5A; class I‐IV). […] Three peptides bound only to the major pocket. Eight peptides with class III motif and one KRxH‐containing peptide only bound to the minor pocket. Five peptides outcompeted both probe peptides, which may be explained by the amino acid sequence matching both class II and class III motifs (e.g., 1135‐ PSPKRKL ‐1139 in ZNF532; Fig 5), and possibly by cross specificity of the two binding pockets.

[6] = test system: HEK293 cells; assay: GFP-based NLS sensor (tri-GFP) cellular localization; assay type: cell-based, human; details: HEK293 cells transiently transfected, fixed 36 h after transfection, epifluorescence microscopy, DAPI; n = 3 independent experiments
Excerpt: For the cell‐based NLS experiment, a pEGFP‐C1 vector was modified to contain two additional eGFP genes spaced by a linker region on the 3′ end of the vector's multiple cloning site (Appendix Fig S8). The modified vector is here called a “tri‐GFP vector”. DNA strands for tandem peptides to be tested for NLS function were constructed by PCR using overlapping primers that coded for the peptide sequences and also contained overlapping regions for the MCS in the tri‐GFP vector. The PCR products were then cloned into the tri‐GFP vector using Gibson Assembly® (New England Biolabs) following the manufacturer's recommendations. Obtained clones were verified by Sanger sequencing.
HEK293 cells were obtained from Sigma (Cat. 85120602) and cultured using DMEM with GlutaMAX™ Supplement (Gibco™) supplemented with 10% FBS (Gibco™) and Non‐Essential Amino Acids Solution (NEAA, Gibco™). Cultures were maintained at 37°C with 5% CO2 in humidified chambers and were routinely checked for mycoplasma contamination. For NLS experiments, cells were transfected using FuGENE® HD (Promega) according to manufacturer's instructions and using highly purified DNA samples. • Cells were then grown in eight‐well chamber slides. […]

CC(C)[C@H](NC(=O)[C@H](Cc1ccccc1)NC(=O)[C@@H](NC(=O)[C@H](C)NC(=O)[C@@H](NC(=S)Nc1ccc2c(c1)C(=O)OC21c2ccc(O)cc2Oc2cc(O)ccc21)C(C)C)[C@@H](C)O)C(=O)N[C@@H](Cc1ccccc1)C(=O)NCC(=O)N[C@@H](CCC(N)=O)C(=O)N[C@@H](CO)C(=O)N[C@@H](CO)C(N)=O [NUP153_FITC] ({FITC}-VATFVFGQSS-NH2)
Kd [1]: 106 µM

CC(C)C[C@H](NC(=O)[C@@H]1CCCN1C(=O)[C@H](CO)NC(=O)[C@H](Cc1ccc(O)cc1)NC(=O)[C@@H](NC(=O)[C@H](Cc1c[nH]c2ccccc12)NC(=O)[C@H](CO)NC(=O)[C@H](CCCNC(=N)N)NC(=O)[C@H](CCC(=O)O)NC(=O)[C@H](CC(=O)O)NC(=O)[C@@H](NC(=O)[C@@H]1CCCN1C(=O)[C@H](Cc1ccccc1)NC(=S)Nc1ccc2c(c1)C(=O)OC21c2ccc(O)cc2Oc2cc(O)ccc21)[C@@H](C)O)C(C)C)C(=O)N[C@@H](Cc1c[nH]cn1)C(=O)N[C@@H](Cc1ccc(O)cc1)C(=O)N[C@@H](CO)C(N)=O [PIP5K1C_FITC] ({FITC}-FPTDERSWVYSPLHYS-NH2)
Kd [2]: 150 ± 40 nM

CC(C)[C@H](NC(=O)[C@H](CC(N)=O)NC(=O)[C@@H]1CCCN1C(=O)[C@@H](NC(=O)[C@H](COP(=O)(O)O)NC(=O)[C@@H](NC(=O)[C@H](CO)NC(=O)[C@H](CCCNC(=N)N)NC(=O)[C@H](CCC(N)=O)NC(=S)Nc1ccc2c(c1)C(=O)OC21c2ccc(O)cc2Oc2cc(O)ccc21)[C@@H](C)O)[C@@H](C)O)C(=O)N[C@@H](Cc1c[nH]cn1)C(N)=O [RAF_FITC] ({FITC}-QRST[pS]TPNVH-NH2)
Kd [3]: 524 µM

Ac-NEPTTPSWLADIPPWVP-NH2 [MAP1A]
IC50 [4]: 1.97 mM

Ac-YKCKRQRQDQTLELVGL-NH2 [NKX2-5 Wt]
Ki [5]: 6.8 µM | NLS function: localization of the GFP-based NLS sensor fused to the peptide [6]: nuclear localization

Ac-YKCRRQRQDQTLELVGL-NH2 [NKX2-5 K194R]
IC50 ([5]; FP competition with FITC-Myc320-328 probe for the major pocket, 50 mM KPO4 pH 7.5, n = 3 technical replicates): 98 µM | loss of affinity of KPNA4 binding, mutant versus wild-type ([5]; FP competition with FITC-Myc probe, K194R versus wild-type): 10 fold | NLS function: localization of the GFP-based NLS sensor fused to the peptide [6]: cytoplasmic localization
